In PMC9404985, “Development of Dicationic Bisguanidine-Arylfuran Derivatives as Potent Agents against Gram-Negative Bacteria” (Antibiotics, 2022):

Experiments:
[1] = tested on: Escherichia coli CCUG # 17620; experiment: MIC of established antibiotics, micro-broth dilution; conditions: CCUG17620, read-out: MIC Escherichia coli CCUG 17620
[2] = tested on: Escherichia coli CCUG # 67180; experiment: as above; conditions: CCUG67180, read-out: MIC Escherichia coli CCUG 67180
[3] = tested on: Klebsiella pneumoniae CCUG # 225T; experiment: as above; conditions: read-out: MIC Klebsiella pneumoniae CCUG 225T
[4] = tested on: Klebsiella pneumoniae CCUG # 58547; experiment: as above; conditions: CCUG58547, read-out: MIC Klebsiella pneumoniae CCUG 58547
[5] = tested on: Pseudomonas aeruginosa CCUG # 17619; experiment: as above; conditions: CCUG17619, read-out: MIC Pseudomonas aeruginosa CCUG 17619
[6] = tested on: Pseudomonas aeruginosa CCUG # 59347; experiment: as above; conditions: CCUG59347, read-out: MIC Pseudomonas aeruginosa CCUG 59347
[7] = tested on: Acinetobacter baumannii CCUG # 57250; experiment: as above; conditions: CCUG57250, read-out: MIC Acinetobacter baumannii CCUG 57250
[8] = tested on: Acinetobacter baumannii CCUG # 57035; experiment: as above; conditions: CCUG57035, read-out: MIC Acinetobacter baumannii CCUG 57035
[9] = tested on: Enterobacter hormaechei CCUG # 58962; experiment: as above; conditions: CCUG58962, read-out: MIC Enterobacter hormaechei CCUG 58962
[10] = Cytotoxicity assay (PrestoBlue) MCF-7; assay type: cell-based; conditions: human, MCF-7 cells (breast cancer cell line), 24 h incubation
Protocol: (§1) The cytotoxicity levels of all compounds were evaluated against human Michigan Cancer Foundation-7 (MCF-7) and Hepatoma G2 cell line (HepG2) cell lines. MCF-7 is an extensively characterized breast cancer cell line isolated in 1970 [41], while HepG2 cells were derived from a hepatoma in 1975 [42]. Both cell lines grow robustly during in vitro culture and have been widely used for cytotoxicity testing. Cells of hepatic origin, such as HepG2, are of particular relevance for toxicity studies as many drugs accumulate in the liver during metabolic conversion. Cells were grown in Dulbecco’s Modified Eagle Medium supplemented with 10% fetal calf serum and kept in exponential growth, as previously reported. Before the assay, cells were reseeded into 96-well microtiter plates at a density allowing continued exponential growth and let to settle for 24 h. The compounds were added from a stock solution in DMSO, for a final concentration of 0.3% v/v of the solvent in the culture medium. After 24 h of incubation in presence of the compound, cell viability was assayed using PrestoBlue Cell Viability Reagent (resazurin-based solution, ThermoFisher, Waltham, MA, USA) according to the manufacturer’s instructions. […] Each assay contained a DMSO control at the equivalent starting concentration, positive control (uninhibited cell growth) and negative control (cell medium only). Survival was expressed as percentage of the solvent-only control. […] The Selectivity Index (SI) for each compound and bacterial strain was calculated as the ratio between the mean of the EC50 values for the two human cell lines and the EC50 for the bacterial strain in question ((EC50 MCF-7 + EC50 HepG2)/2)/EC50 bacterial strain).

[11] = Cytotoxicity assay (PrestoBlue) HepG2; assay type: cell-based; conditions: human, HepG2 cells (hepatoma cell line), 24 h incubation
Protocol: as §1

[12] = tested on: B. subtilis (NBRC/ATCC #111470); experiment: Antibacterial resazurin assay, laboratory strain; conditions: for EC50 / EC90: Bacillus subtilis, ATCC111470, 18 h; for EC50: read-out: Bsu EC50; for EC90: read-out: Bsu EC90; for Selectivity index B. subtilis: mean of MCF-7 and HepG2 EC50 over bacterial EC50, laboratory strain
[13] = tested on: E. coli MG1655 (CGSC #6300); experiment: Antibacterial resazurin assay, laboratory strain; conditions: for EC50 / EC90: Escherichia coli, MG1655, 18 h; for EC50: read-out: Eco EC50; for EC90: read-out: Eco EC90; for Selectivity index E. coli: mean of MCF-7 and HepG2 EC50 over bacterial EC50, laboratory strain
[14] = tested on: P. putida (NBRC/ATCC #100650); experiment: Antibacterial resazurin assay, laboratory strain; conditions: for EC50 / EC90: Pseudomonas putida, ATCC100650, 18 h; for EC50: read-out: Ppu EC50, laboratory strain, 18 h, 37 °C, AlamarBlue; for EC90: read-out: Ppu EC90; for Selectivity index P. putida: mean of MCF-7 and HepG2 EC50 over bacterial EC50, laboratory strain
[15] = tested on: P. carotovorum (NBRC/ATCC #3380); experiment: Antibacterial resazurin assay, laboratory strain; conditions: for EC50 / EC90: Pectobacterium carotovorum, ATCC3380, 18 h; for EC50: read-out: Pcar EC50, laboratory strain, 18 h, 37 °C, AlamarBlue; for EC90: read-out: Pcar EC90; for Selectivity index P. carotovorum: mean of MCF-7 and HepG2 EC50 over bacterial EC50, laboratory strain
[16] = tested on: P. caledonica (NBRC/ATCC #102488); experiment: Antibacterial resazurin assay, laboratory strain; conditions: for EC50 / EC90: Paraburkholderia caledonica, ATCC102488, 18 h; for EC50: read-out: Pcal EC50; for EC90: read-out: Pcal EC90; for Selectivity index P. caledonica: mean of MCF-7 and HepG2 EC50 over bacterial EC50, laboratory strain

Row | Structure (SMILES) | EC50 at 24 h [10] [µM] | EC50 at 24 h [11] [µM] | EC50 [12] [µM] | EC90 [12] [µM] | EC50 [13] [µM] | EC90 [13] [µM] | Selectivity index E. coli [13] | EC50 [14] [µM] | EC90 [14] [µM] | Selectivity index P. putida [14] | EC50 [15] [µM] | EC90 [15] [µM] | Selectivity index P. carotovorum [15] | EC50 [16] [µM] | EC90 [16] [µM] | Selectivity index B. subtilis [12] | Selectivity index P. caledonica [16] | also measured
1 | O=C(O)c1cn(C2CC2)c2cc(N3CCNCC3)c(F)cc2c1=O [Ciprofloxacin] | – | – | – | – | – | – | – | – | – | – | – | – | – | – | – | – | – | MIC [1]: 0.025 µM; MIC [2]: 190 µM; MIC [3]: 0.18 µM; MIC [4]: 190 µM; MIC [5]: 1.5 to 3 µM; MIC [6]: 100 µM; MIC [7]: 200 µM; MIC [8]: 200 µM; MIC [9]: 0.1 µM
2 | N=C(N)Nc1ccc(-c2ccc(-c3ccc(NC(=N)N)cc3C(F)(F)F)o2)c(C(F)(F)F)c1 [Compound 5, 2,5-Bis(4-guanidino-2-trifluoromethylphenyl)furan] | 23.2 | 69 | > 300 | > 300 | 29.4 | 59.1 | 1.6 | 290 | 319 | 0.2 | 185 | 233 | 0.2 | > 300 | > 300 | – | – | –
3 | N#Cc1cc(NC(=N)N)ccc1-c1ccc(-c2ccc(NC(=N)N)cc2C#N)o1 [Compound 7, 2,5-Bis(2-cyano-4-guanidinophenyl)furan] | 46 | 78.9 | 146 | 562 | 59.3 | 350 | 1.1 | 24.5 | 51.5 | 2.5 | 212 | 268 | 0.3 | > 300 | > 300 | 0.4 | – | –
4 | Cc1nc(NC(=N)N)ccc1-c1ccc(-c2ccc(NC(=N)N)nc2C)o1 [Compound 9, 2,5-Bis(6-guanidino-2-methylpyridin-3-yl)furan] | > 1000 | > 100 | 154 | 246 | 547 | > 900 | 1.0 | > 300 | > 300 | – | > 300 | > 300 | – | 84.8 | 213 | 3.6 | 6.5 | –
5 | Nc1c(Nc2ccc(-c3ccc(-c4ccc(Nc5c(N)c(=O)c5=O)cc4Cl)o3)c(Cl)c2)c(=O)c1=O [Compound 11, 2,5-Bis(2-chloro-4-((3,4-dioxo-2-(amino)cyclobut-1-en-1-yl)amino)phenyl)furan] | 508 | 183 | > 300 | > 300 | > 300 | > 300 | – | > 300 | > 300 | – | > 300 | > 300 | – | 19 | 60.1 | – | 18.2 | –
6 | Nc1c(Nc2ccc(-c3ccc(-c4ccc(Nc5c(N)c(=O)c5=O)cc4)o3)cc2)c(=O)c1=O [Compound 12, 2,5-Bis(4-((3,4-dioxo-2-(amino)cyclobut-1-en-1-yl)amino)phenyl)furan] | > 1000 | > 1000 | > 300 | > 300 | > 300 | > 300 | – | > 300 | > 300 | – | > 300 | > 300 | – | > 300 | > 300 | – | – | –
7 | Cc1cc(Nc2c(N)c(=O)c2=O)ccc1-c1ccc(-c2ccc(Nc3c(N)c(=O)c3=O)cc2C)o1 [Compound 13, 2,5-Bis(2-methyl-4-((3,4-dioxo-2-(amino)cyclobut-1-en-1-yl)amino)phenyl)furan] | > 1000 | 137 | > 300 | > 300 | > 300 | > 300 | – | > 300 | > 300 | – | > 300 | > 300 | – | > 300 | > 300 | – | – | –
8 | Nc1c(Nc2ccc(-c3ccc(-c4ccc(Nc5c(N)c(=O)c5=O)cc4C(F)(F)F)o3)c(C(F)(F)F)c2)c(=O)c1=O [Compound 14, 2,5-Bis(2-trifluoromethyl-4-((3,4-dioxo-2-(amino)cyclobut-1-en-1-yl)amino)phenyl)furan] | 173 | 185 | > 300 | > 300 | > 300 | > 300 | – | > 300 | > 300 | – | > 300 | > 300 | – | 90.4 | 305 | – | 2.0 | –
9 | N=C(N)Nc1ccc2c(c1)CCN2C(=O)c1ccc(-c2ccc(NC(=N)N)cc2C(F)(F)F)o1 [Compound 18, (5-(2-trifluoromethy-4-guanidinophenyl)furan-2-yl)(5-guanidinoindolin-1-yl)methanone] | 123 | 508 | 9.6 | 13.6 | 42.3 | 58.3 | 7.5 | 10.1 | 22.2 | 31.3 | 94.6 | 120 | 3.3 | 12.6 | 176 | 32.9 | 25.1 | –
10 | N=C(N)Nc1ccc2c(c1)CCN2C(=O)c1ccc(-c2ccccc2Cl)o1 [Compound 19, (5-(2-chlorophenyl)furan-2-yl)(5-guanidinoindolin-1-yl)methanone] | 26.4 | 24.8 | 14.5 | 25.9 | 0.5 | 2.5 | 51.2 | 75 | 84.9 | 0.3 | 87.1 | 130 | 0.3 | 96.3 | 287 | 1.8 | 0.3 | –
11 | N=C(N)Nc1ccc(-c2ccc(C(=O)N3CCc4ccccc43)o2)c(Cl)c1 [Compound 20, (5-(2-chloro-4-guanidinophenyl)furan-2-yl)(indolin-1-yl)methanone] | 37.8 | 28.5 | 24.5 | 38.4 | 61.7 | 106 | 0.5 | > 300 | > 300 | – | 159 | 187 | 0.2 | 129 | > 300 | 1.4 | 0.3 | –
